Reference: ChEMBL document CHEMBL4725262, “Potent antiviral activity of novel multi-substituted 4-anilinoquin(az)olines” (Bioorg Med Chem Lett, 2020)

Assays:
dengue virus type 2 [1] = test: Antiviral activity against DENV2 New Guinea C strain infected in Huh7 cells after 48 hrs by renilla luciferase assay; format: functional, organism-based, Huh-7; settings: for EC90: Huh-7, time 48 hrs
[2] = Cytotoxicity against human Huh-7 cells infected with DENV2 by alamar blue assay; format: cell-based
dengue virus type 2 [3] = test: Potency index, ratio of erlotinib EC50 to compound EC50 for antiviral activity against DENV2 New Guinea C strain infected in Huh7 cells after 48 hrs by renilla luciferase assay; format: functional, Huh-7
[4] = Selectivity index, ratio of CC50 for human Huh7 cells to EC50 for DENV2 New Guinea C; format: toxicity; settings: read-out: Ratio CC50/EC50
[5] = Dengue virus, New Guinea C, Huh-7, 48 h

Row | SMILES | EC50 (dengue virus type 2 [1]; [5]) [µM] | CC50 [2] [µM] | Ratio EC50 (dengue virus type 2 [3]) | EC90 (dengue virus type 2 [1]; Dengue virus, New Guinea C) [µM] | selectivity ratio [4] | EC50 (dengue virus type 2 [1]; huh-7) [µM]
1 | COc1cc(Nc2cc(C)nc3ccccc23)cc(OC)c1OC | 8 | > 10 | – | – | – | –
2 | COc1ccc2c(Nc3cc(OC)c(OC)c(OC)c3)ncnc2c1 | 2.7 | > 10 | 2 | – | – | –
3 | COc1ccc2c(Nc3cc(OC)c(OC)c(OC)c3)cc(C)nc2c1 | > 10 | > 10 | – | – | – | –
4 | COc1cc2ncnc(Nc3cc(OC)c(OC)c(OC)c3)c2cc1OC | 6.6 | > 10 | – | – | – | –
5 | COc1cc(Nc2ncnc3ccc(F)cc23)cc(OC)c1OC | > 10 | > 10 | – | – | – | –
6 | COc1cc(Nc2ncnc3ccccc23)cc(OC)c1OC | 2.8 | > 10 | 2 | – | – | –
7 | COc1ccc(-c2cnc3[nH]cc(C#Cc4cccnc4)c3c2)cc1OC | 0.72 | – | – | – | – | –
8 | COc1cc(Nc2ncnc3ccc(Br)cc23)cc(OC)c1OC | 0.97 | > 10 | – | – | – | –
9 | COc1cc(Nc2cc(C)nc3cc(C(F)(F)F)ccc23)cc(OC)c1OC | > 10 | > 10 | – | – | – | –
10 | COc1cc2nccc(Nc3cc(OC)c(OC)c(OC)c3)c2cc1OC | > 10 | > 10 | – | – | – | –
11 | COc1ccc2c(Nc3cc(OC)c(OC)c(OC)c3)ccnc2c1 | > 10 | > 10 | – | – | – | –
12 | COc1cc(Nc2ccnc3ccc(S(C)(=O)=O)cc23)cc(OC)c1OC | 0.84 | > 10 | – | – | – | –
13 | COc1cc(Nc2ccnc3c(C)cccc23)cc(OC)c1OC | > 10 | > 10 | – | – | – | –
14 | COc1cc(Nc2ncnc3ccc(Cl)cc23)cc(OC)c1OC | 1 | > 10 | >10 | – | – | –
15 | COc1cc(Nc2ccnc3ccc(C(C)(C)C)cc23)cc(OC)c1OC | 7.4 | > 10 | – | – | – | –
16 | COc1cc(Nc2ccnc3ccc(C(F)(F)F)cc23)cc(OC)c1OC | 0.59 | > 10 | – | – | – | –
17 | COc1cc(Nc2ccnc3cc(C(F)(F)F)ccc23)cc(OC)c1OC | 6.8 | > 10 | – | – | – | –
18 | C#Cc1cccc(Nc2ncnc3cc(OCCOC)c(OCCOC)cc23)c1 [ERLOTINIB] | 6.5 | – | – | – | – | –
19 | COc1cc(Nc2ccnc3cc(I)ccc23)cc(OC)c1OC | 3.6 | > 10 | 2 | – | – | –
20 | COc1cc(Nc2ncnc3ccc(C)cc23)cc(OC)c1OC | > 10 | > 10 | – | – | – | –
21 | COc1cc(Nc2ccnc3ccc(I)cc23)cc(OC)c1OC | 0.82 | > 10 | – | – | – | –
22 | COc1cc(Nc2ncnc3ccc(I)cc23)cc(OC)c1OC | 1 | > 10 | – | – | – | –

Row | SMILES | EC50 (dengue virus type 2 [1]; [5]) [µM] | CC50 [2] [µM] | Ratio EC50 (dengue virus type 2 [3]) | EC90 (dengue virus type 2 [1]; Dengue virus, New Guinea C) [µM] | selectivity ratio [4] | EC50 (dengue virus type 2 [1]; huh-7) [µM]
23 | COc1cc(Nc2ccnc3cc(C#N)ccc23)cc(OC)c1OC | 3.3 | > 10 | – | – | – | –
24 | COc1ccc2nccc(Nc3cc(OC)c(OC)c(OC)c3)c2c1 | 0.75 | > 10 | 8 | – | – | –
25 | COc1cc(Nc2c(C#N)cnc3ccccc23)cc(OC)c1OC | > 10 | > 10 | – | – | – | –
26 | COc1cc(Nc2ncnc3ccc(C(F)(F)F)cc23)cc(OC)c1OC | > 10 | > 10 | – | – | – | –
27 | COc1ccc2ncnc(Nc3cc(OC)c(OC)c(OC)c3)c2c1 | > 10 | > 10 | – | – | – | –
28 | COc1cc(Nc2ccnc3cc(F)ccc23)cc(OC)c1OC | 4.1 | > 10 | – | – | – | –
29 | COc1cc(Nc2ncnc3cc(I)ccc23)cc(OC)c1OC | 2.9 | 5.8 | – | – | – | –
30 | Clc1ccc(-c2ccc(-c3nc(NCc4cccnc4)nc4ccccc34)s2)cc1 | 0.07 | – | – | – | – | –
31 | COc1cc(Nc2ccnc3cc(Br)ccc23)cc(OC)c1OC | 8.4 | > 10 | – | – | – | –
32 | COc1cc(-c2cnc3c(N4C[C@@H](C)O[C@@H](C)C4)snc3c2)ccc1N | 0.87 | – | – | – | – | –
33 | COc1cc(Nc2c(C#N)cnc3ccc(Cl)cc23)cc(OC)c1OC | 1.3 | > 10 | – | – | – | –
34 | COc1cc(Nc2c(C#N)cnc3ccc(Br)cc23)cc(OC)c1OC | 0.082 | > 10 | >80 | 0.151 | – | –
35 | COc1cc(Nc2ccnc3cc(F)c(F)cc23)cc(OC)c1OC | 1 | 5.5 | – | – | – | –
36 | COc1cc(Nc2ncnc3ccc(C#N)cc23)cc(OC)c1OC | 3.7 | > 10 | – | – | – | –
37 | COc1cc(Nc2cc(C)nc3ccc(C(F)(F)F)cc23)cc(OC)c1OC | 0.91 | > 10 | – | – | – | –
38 | COc1cc(Nc2c(C#N)cnc3cc(Cl)ccc23)cc(OC)c1OC | > 10 | > 10 | – | – | – | –
39 | COc1cc2ncc(C#N)c(Nc3cc(OC)c(OC)c(OC)c3)c2cc1OC | 5.5 | > 10 | – | – | – | –
40 | CCN(CC)c1ccc(Oc2ccc(-c3[nH]c4cccc(F)c4c(=O)c3C)cc2F)cc1 | 0.007 | – | – | – | – | –
41 | COc1cc(Nc2c(C#N)cnc3cc(Br)ccc23)cc(OC)c1OC | > 10 | > 10 | – | – | – | –
42 | COc1cc(N(C)c2ccnc3ccc(C(F)(F)F)cc23)cc(OC)c1OC | 10 | > 10 | – | – | – | –
43 | COc1ccc2nc(C)cc(Nc3cc(OC)c(OC)c(OC)c3)c2c1 | 10 | > 10 | – | – | – | –
44 | COc1cc(Nc2cc(C)nc3ccc(Br)cc23)cc(OC)c1OC | 0.28 | 2.5 | >20 | 0.53 | 10 | –

Row | SMILES | EC50 (dengue virus type 2 [1]; [5]) [µM] | CC50 [2] [µM] | Ratio EC50 (dengue virus type 2 [3]) | EC90 (dengue virus type 2 [1]; Dengue virus, New Guinea C) [µM] | selectivity ratio [4] | EC50 (dengue virus type 2 [1]; huh-7) [µM]
45 | CC(C)(C)Oc1cccc2nc(N)nc(N)c12 | 0.0028 | – | – | – | – | –
46 | COc1cc(Nc2ncnc3cc(Cl)ccc23)cc(OC)c1OC | 6.1 | > 10 | – | – | – | –
47 | COc1cc(Nc2ncnc3ccc(S(C)(=O)=O)cc23)cc(OC)c1OC | > 10 | > 10 | – | – | – | –
48 | COc1cc(Nc2ncnc3cc(Br)ccc23)cc(OC)c1OC | 2 | > 10 | – | – | – | –
49 | COc1cc(Nc2cc(C)nc3ccc(F)cc23)cc(OC)c1OC | 2.3 | > 10 | – | – | – | –
50 | COc1cc(Nc2ncnc3cc(F)ccc23)cc(OC)c1OC | > 10 | > 10 | – | – | – | –
51 | COc1cc(Nc2ccnc3ccc(C#N)cc23)cc(OC)c1OC | 0.76 | > 10 | – | – | – | –
52 | COc1cc(Nc2ncnc3cc(F)c(F)cc23)cc(OC)c1OC | > 10 | > 10 | >10 | – | – | –
53 | COc1ccc2c(Nc3cc(OC)c(OC)c(OC)c3)c(C#N)cnc2c1 | > 10 | > 10 | – | – | – | –
54 | COc1cc2nc(C)cc(Nc3cc(OC)c(OC)c(OC)c3)c2cc1OC | 10 | > 10 | – | – | – | –
55 | COc1ccc2ncc(C#N)c(Nc3cc(OC)c(OC)c(OC)c3)c2c1 | 3.1 | > 10 | – | – | – | –
56 | COc1cc(Nc2ccnc3ccc(Cl)cc23)cc(OC)c1OC | 0.52 | > 10 | – | – | – | –
57 | COc1cc(Nc2ccnc3ccc(F)cc23)cc(OC)c1OC | 5.2 | > 10 | – | – | – | –
58 | COc1cc(Nc2ccnc3ccc(Br)cc23)cc(OC)c1OC | 0.08 | > 10 | >80 | – | – | 0.122
59 | COc1cc(Nc2ccnc3ccccc23)cc(OC)c1OC | 8.2 | > 10 | – | – | – | –
60 | COc1cc(Nc2ncnc3cc(C(F)(F)F)ccc23)cc(OC)c1OC | 5.1 | > 10 | – | – | – | –
61 | COc1cc(Nc2c(C#N)cnc3ccc(I)cc23)cc(OC)c1OC | 0.079 | > 10 | >80 | 0.125 | – | –
62 | COc1cc(Nc2ncnc3cc(C#N)ccc23)cc(OC)c1OC | 1.4 | > 10 | – | – | – | –
63 | COc1cc(Nc2ccnc3cc(Cl)ccc23)cc(OC)c1OC | > 10 | > 10 | – | – | – | –
64 | COc1cc(Nc2c(C#N)cnc3cc(I)ccc23)cc(OC)c1OC | 4.7 | > 10 | – | – | – | –
65 | COc1cc(Nc2c(C#N)cnc3ccc(S(C)(=O)=O)cc23)cc(OC)c1OC | > 10 | > 10 | – | – | – | –
